Results: patent US20210253518A1, “KINASE INHIBITOR” (NISSAN CHEMICAL CORPORATION, priority 2018, published 2021)

Columns and labels:
[1] = target: T1, LATS2 (Homo sapiens, UniProt Q9NRM7); assay: Kinase Assay method (Fluorospark Kinase/ADP Multi-Assay Kit); type: biochemical
T1 construct: purchased Carna Biosciences
T1 sequence (Q9NRM7 553-1088 limits assumed): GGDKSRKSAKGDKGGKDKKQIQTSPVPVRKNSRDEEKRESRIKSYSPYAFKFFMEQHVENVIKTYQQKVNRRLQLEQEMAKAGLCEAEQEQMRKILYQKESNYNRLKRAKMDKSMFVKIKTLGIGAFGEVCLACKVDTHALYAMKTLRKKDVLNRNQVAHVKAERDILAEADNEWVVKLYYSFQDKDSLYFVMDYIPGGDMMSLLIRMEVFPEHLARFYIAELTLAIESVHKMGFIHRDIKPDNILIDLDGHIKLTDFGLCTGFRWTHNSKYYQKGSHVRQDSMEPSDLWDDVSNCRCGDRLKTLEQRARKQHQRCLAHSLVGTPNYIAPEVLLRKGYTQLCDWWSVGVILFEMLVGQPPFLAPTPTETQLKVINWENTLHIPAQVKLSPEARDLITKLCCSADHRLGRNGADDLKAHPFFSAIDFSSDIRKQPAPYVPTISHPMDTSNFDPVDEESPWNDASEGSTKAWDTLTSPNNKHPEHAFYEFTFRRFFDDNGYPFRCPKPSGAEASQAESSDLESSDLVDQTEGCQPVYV
Method: (§1) For compound k-1:B-1 (racemate), GA-002A, GA-002B, GA-005A and GA-005B, inhibitory activity evaluation (calculation of IC50) was performed on LATS1 and LATS2 (manufactured by Carna Biosciences). The activity was measured using the Kinase Assay method described below. The compounds were added such that the test concentration of k-1:B-1 (racemate), GA-002A, GA-002B, GA-005A and GA-005B was in 8 steps (10 μM, 1 μM, 100 nM, […], 10 nM, 3 nM, 1 nM, 0.3 nM) from the final concentration of 10 μM to 0.3 nM.
(§2) As the analysis method of the data, the mean signal of the control well containing reaction components other than the evaluation compound was set to 0% inhibition, the mean signal without enzyme addition was set to 100% inhibition, and the inhibition rate was calculated from the mean signal of 2 wells of each test substance test. IC50 value was calculated using EXSUS (version 7.1.6, manufactured by CAC EXICARE Corporation).
(§3) 2 μL of a compound of the present invention solution at 2.5-fold concentration, 1 μL of substrate at 5-fold concentration (SGKtide: NH2—CKKRNRRLSVA-COOH, manufactured by SignalChem), ATP (manufactured by Sigma-Aldrich), MgCl2 (manufactured by FUJIFILM Wako Pure Chemical Corporation) solution (final concentration 10 μM, 400 μM or 5 mM), and 2 μL of kinase solution at 2.5-fold concentration (final concentration of LATS1 or LATS2 5 μg/mL), each prepared with assay buffer (20 mM HEPES, 0.01% Triton X-100, 2 mM DTT, pH 7.5), were mixed in the wells of a polypropylene 384-well plate (manufactured by Greiner Bio-One, #784900) and reacted at room temperature for 5 hr. Successively, 5 μL detection solution (Fluorospark (registered trade mark)Kinase/ADP Multi-Assay Kit; manufactured by FUJIFILM Wako Pure Chemical Corporation) was added, and the mixture was reacted at room temperature 30 min. Successively, 5 μL of a reaction quenching liquid (Fluorospark (registered trade mark) Kinase/ADP Multi-Assay Kit; manufactured by FUJIFILM Wako Pure Chemical Corporation) was added to discontinue the reaction. Thereafter, the ADP concentration of the reaction solution was quantified by EnSpire (manufactured by PerkinElmer) to detect the kinase reaction.

[2] = target: T2, LATS1 (Homo sapiens, UniProt O95835); assay: as above; type: biochemical
T2 construct: purchased Carna Biosciences
T2 sequence (O95835 589-1130 limits assumed): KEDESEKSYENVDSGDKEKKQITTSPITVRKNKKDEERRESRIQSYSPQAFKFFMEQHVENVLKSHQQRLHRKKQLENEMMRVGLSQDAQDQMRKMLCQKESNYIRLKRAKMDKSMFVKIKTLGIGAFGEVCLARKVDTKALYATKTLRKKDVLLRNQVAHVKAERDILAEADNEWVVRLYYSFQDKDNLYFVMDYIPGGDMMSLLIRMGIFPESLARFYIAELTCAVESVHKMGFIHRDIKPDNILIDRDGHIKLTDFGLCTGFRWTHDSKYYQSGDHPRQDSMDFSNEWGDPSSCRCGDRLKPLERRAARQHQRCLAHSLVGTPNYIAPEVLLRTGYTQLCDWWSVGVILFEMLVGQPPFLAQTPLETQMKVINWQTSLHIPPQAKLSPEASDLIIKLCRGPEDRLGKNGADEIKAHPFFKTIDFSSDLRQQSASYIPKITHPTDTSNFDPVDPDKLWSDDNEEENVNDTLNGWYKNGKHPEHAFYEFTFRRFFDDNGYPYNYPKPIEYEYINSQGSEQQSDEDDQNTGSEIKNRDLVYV
Method: as §1, §2, §3

[3] = test system: colitis model administered with dextran sulfate sodium (DSS); assay: DSS colitis model mouse, length of the large intestine; type: in vivo; settings: 2.5 w/v % DSS drinking water, 50 mg/kg intraperitoneally every 24 hr, day 8, vs 0.5% MC, FIG. 3
Method: Colitis model administered with dextran sulfate sodium (DSS) (manufactured by FUJIFILM Wako Pure Chemical Corporation) was produced as described below. The length of the large intestine is used as a morphological parameter in the evaluation of colitis, and the large intestine shortens according to the degree of inflammation. Therefore, the anti-inflammatory effect of the compound was evaluated by comparing the length of the large intestine.
Compound K-1:J-1 was prepared as a 0.5 w/v % methylcellulose aqueous solution (0.5% MC, manufactured by FUJIFILM Wako Pure Chemical Corporation) at 5 mg/mL and intraperitoneally administered at 50 mg/kg per administration. 0.5% MC was administered to the negative control.
As the mouse, male C57BL/6NCrl, 6-week-old, was purchased from CHARLES RIVER LABORATORIES JAPAN, INC. As drinking water, distilled water or a 2.5 w/v % DSS aqueous solution was freely given. The DSS drinking start date was set as day 1, and the water was given until day 8. Compound K-1:J-1 was intraperitoneally administered at 50 mg/kg every 24 hr from day 1. On day 8, the mouse was dissected, the large intestine was isolated and the length of the large intestine was measured. Conducted in 4 cases in each group.

[4] = Kinase Assay method, 8 steps 10 μM to 0.3 nM

| inhibition at 0.1 µM ([1]; 100 nM, read-out: LARS2 inhibitory rate (%)) [%] | inhibition at 1 µM ([1]; 1000 nM, read-out: LARS2 inhibitory rate (%)) [%] | IC50 [1, 4] [nM] | inhibition at 0.1 µM ([2]; 100 nM, read-out: LARS1 inhibitory rate (%)) [%] | inhibition at 1 µM ([2]; 1000 nM, read-out: LARS1 inhibitory rate (%)) [%] | IC50 [2, 4] [nM] | SMILES | length of the large intestine [3] |
| --- | --- | --- | --- | --- | --- | --- | --- |
| 75 | 96 | 30.8 | 94 | 102 | 8.88 | CC/C(=N\NC(=O)C(C)Nc1ccccc1)c1ccc(O)c(C)c1O (stereo not shown) [k-1:B-1] |  |
|  |  |  |  |  |  | CC/C(=N\NC(=O)NCc1cccc(O)c1)c1ccc(O)c(C)c1O [k-1:J-1] | shortening of the large intestine was suppressed more |
